This assay has as its system hypoxia-induced VEGF production in HeLa cells. Nature of the assay: cells. In kind it is cell-based, human. The following applies: Homo sapiens, HeLa.

A value given as a limit tells only on which side of the number the result lay.

What is called EC50 is the concentration that produces a half-maximal response. In turn, `CCOC(=O)N1CCc2c([nH]c3ccc(Cl)cc23)C1c1ccc(OCC(O)CO)cc1` (stereo not drawn) [Compound 1000] came in with an EC50 of 0.008 to 0.04 µM.
Consider `CC#CCOC(=O)N1CCc2c([nH]c3ccc(Cl)cc23)C1c1ccc(OCC(O)CN)cc1` (stereo not drawn) [Compound 1002], for which the EC50 was in the range of 0.04 to 0.2 µM.
Turning to `CCOC(=O)N1CCc2c([nH]c3ccc(Cl)cc23)C1c1ccc(OCC(=O)N2CCN(CCOC)CC2)cc1` (stereo not drawn) [Compound 1003], the EC50 fell in the range of 0.008 to 0.04 µM.
Compound `CCOC(=O)N1CCc2c([nH]c3ccc(Cl)cc23)C1c1ccc(OCC(=O)NCCN2CCOCC2)cc1` (stereo not drawn) [Compound 1004] gave an EC50 of 0.008 to 0.04 µM.
Compound `COc1ccc(OC(=O)N2CCc3c([nH]c4ccc(Cl)cc34)C2c2ccc(OCCC3CCCN3C)cc2)cc1` (stereo not drawn) [Compound 1005] gave an EC50 of 0.2 to 1 µM.
As to `CCOC(=O)N1CCc2c([nH]c3ccc(Cl)cc23)C1c1ccc(OCCC2CCCN2C)cc1` (stereo not drawn) [Compound 1006], the EC50 was 0.04 to 0.2 µM.
The value for `COC(=O)N1CCc2c([nH]c3ccc(Cl)cc23)C1c1ccc(OCCC2CCCN2C)cc1` (stereo not drawn) [Compound 1007] was 0.04 to 0.2 µM; that for `CN1CCCC1CCOc1ccc(C2c3[nH]c4ccc(Cl)cc4c3CCN2C(=O)Oc2ccc(F)cc2)cc1` (stereo not drawn) [Compound 1008] was 0.04 to 0.2 µM.
Regarding `COC(=O)N1CCc2c([nH]c3ccc(Cl)cc23)C1c1ccc(OCC2CCCCN2C)cc1` (stereo not drawn) [Compound 1010], the EC50 lay within 0.04 to 0.2 µM.
For the compound `CCOC(=O)N1CCc2c([nH]c3ccc(Cl)cc23)C1c1ccc(OCC(=O)N2CCOCC2)cc1` (stereo not drawn) [Compound 1012], the EC50 lay within 0.04 to 0.2 µM.
Consider `CCOC(=O)N1CCc2c([nH]c3ccc(Cl)cc23)C1c1ccc(OCC(=O)NCCO)cc1` (stereo not drawn) [Compound 1013], for which the EC50 was in the range of 0.008 to 0.04 µM.
In the case of `CCOC(=O)N1CCc2c([nH]c3ccc(Cl)cc23)C1c1ccc(OCC(=O)N2CCN(CCO)CC2)cc1` (stereo not drawn) [Compound 1014], the EC50 was in the range of 0.04 to 0.2 µM.
For `CCOC(=O)N1CCc2c([nH]c3ccc(Cl)cc23)C1c1ccc(OCC(=O)NCCOC)cc1` (stereo not drawn) [Compound 1015], the EC50 was 0.04 to 0.2 µM.
`O=C(Oc1ccc(Cl)cc1)N1CCc2c([nH]c3ccc(Cl)cc23)C1c1ccc(OCCCn2nccn2)cc1` (stereo not drawn) [Compound 1016] showed an EC50 above 1 µM.
In the case of `O=C(Oc1ccc(F)cc1)N1CCc2c([nH]c3ccc(Cl)cc23)C1c1ccc(OCCCn2nccn2)cc1` (stereo not drawn) [Compound 1017] it was below 0.008 µM; in that of `CC#CCOC(=O)N1CCc2c([nH]c3ccc(Cl)cc23)C1c1ccc(OCC(O)CO)cc1` (stereo not drawn) [Compound 1018], 0.008 to 0.04 µM.
`C#CCCOC(=O)N1CCc2c([nH]c3ccc(Cl)cc23)C1c1ccc(OCC(O)CO)cc1` (stereo not drawn) [Compound 1019] displayed an EC50 of 0.008 to 0.04 µM.
Turning to `C#CCOC(=O)N1CCc2c([nH]c3ccc(Cl)cc23)C1c1ccc(OCC(O)CO)cc1` (stereo not drawn) [Compound 1020], the EC50 lay in the range of 0.008 to 0.04 µM.
For the compound `COCCN1CCN(C(=O)COc2ccc(C3c4[nH]c5ccc(Cl)cc5c4CCN3C(=O)Oc3ccc(F)cc3)cc2)CC1` (stereo not drawn) [Compound 1021], the EC50 was in the range of 0.04 to 0.2 µM.
In turn, `O=C(COc1ccc(C2c3[nH]c4ccc(Cl)cc4c3CCN2C(=O)Oc2ccc(F)cc2)cc1)NCCN1CCOCC1` (stereo not drawn) [Compound 1022] showed an EC50 of 0.04 to 0.2 µM.
In the case of `O=C(COc1ccc(C2c3[nH]c4ccc(Cl)cc4c3CCN2C(=O)Oc2ccc(F)cc2)cc1)N1CCOCC1` (stereo not drawn) [Compound 1023] it was 0.008 to 0.04 µM.
With `CCN1CCN(C(=O)COc2ccc(C3c4[nH]c5ccc(Cl)cc5c4CCN3C(=O)Oc3ccc(F)cc3)cc2)CC1` (stereo not drawn) [Compound 1024], the EC50 is 0.04 to 0.2 µM.
The compound `COCCN1CCN(C(=O)COc2ccc(C3c4[nH]c5ccc(Cl)cc5c4CCN3C(=O)Oc3ccc(OC)cc3)cc2)CC1` (stereo not drawn) [Compound 1025] came in with an EC50 of 0.04 to 0.2 µM.
In turn, `COc1ccc(OC(=O)N2CCc3c([nH]c4ccc(Cl)cc34)C2c2ccc(OCC(=O)NCCN3CCOCC3)cc2)cc1` (stereo not drawn) [Compound 1026] showed an EC50 of 0.008 to 0.04 µM.
Turning to `CCN1CCN(C(=O)COc2ccc(C3c4[nH]c5ccc(Cl)cc5c4CCN3C(=O)Oc3ccc(OC)cc3)cc2)CC1` (stereo not drawn) [Compound 1028], the concentration giving a half-maximal response (EC50) lay in the range of 0.04 to 0.2 µM.
Regarding `COc1ccc(OC(=O)N2CCc3c([nH]c4ccc(Cl)cc34)C2c2ccc(OCC(=O)N3CCN(CCCN(C)C)CC3)cc2)cc1` (stereo not drawn) [Compound 1029], the EC50 is above 1 µM.
Turning to `COc1ccc(OC(=O)N2CCc3c([nH]c4ccc(Cl)cc34)C2c2ccc(OCCCN3CCOCC3)cc2)cc1` (stereo not drawn) [Compound 1030], the EC50 lay within 0.008 to 0.04 µM.
In the case of `COC(=O)N1CCc2c([nH]c3ccc(Cl)cc23)C1c1ccc(OCC2OCCO2)cc1` (stereo not drawn) [Compound 1032] it was 0.008 to 0.04 µM.
`CCOC(=O)N1CCc2c([nH]c3ccc(Cl)cc23)C1c1ccc(OCC2OCCO2)cc1` (stereo not drawn) [Compound 1033] displayed an EC50 of 0.008 to 0.04 µM.
Compound `CCCOC(=O)N1CCc2c([nH]c3ccc(Cl)cc23)C1c1ccc(OCC2OCCO2)cc1` (stereo not drawn) [Compound 1034] returned an EC50 below 0.008 µM.
The value for `CCCCOC(=O)N1CCc2c([nH]c3ccc(Cl)cc23)C1c1ccc(OCC2OCCO2)cc1` (stereo not drawn) [Compound 1035] was below 0.008 µM; that for `CC(C)COC(=O)N1CCc2c([nH]c3ccc(Cl)cc23)C1c1ccc(OCC2OCCO2)cc1` (stereo not drawn) [Compound 1037] was below 0.008 µM.
The value for `CC(C)(C)COC(=O)N1CCc2c([nH]c3ccc(Cl)cc23)C1c1ccc(OCC2OCCO2)cc1` (stereo not drawn) [Compound 1038] was below 0.008 µM; that for `O=C(OCCF)N1CCc2c([nH]c3ccc(Cl)cc23)C1c1ccc(OCC2OCCO2)cc1` (stereo not drawn) [Compound 1039] was below 0.008 µM.
In turn, `O=C(OCCCl)N1CCc2c([nH]c3ccc(Cl)cc23)C1c1ccc(OCC2OCCO2)cc1` (stereo not drawn) [Compound 1040] showed an EC50 of 0.008 to 0.04 µM.
For `O=C(OCCCCl)N1CCc2c([nH]c3ccc(Cl)cc23)C1c1ccc(OCC2OCCO2)cc1` (stereo not drawn) [Compound 1041], the EC50 is 0.008 to 0.04 µM.
`COCCOC(=O)N1CCc2c([nH]c3ccc(Cl)cc23)C1c1ccc(OCC2OCCO2)cc1` (stereo not drawn) [Compound 1042] had an EC50 of 0.008 to 0.04 µM.
For `C=COC(=O)N1CCc2c([nH]c3ccc(Cl)cc23)C1c1ccc(OCC2OCCO2)cc1` (stereo not drawn) [Compound 1043], the EC50 was below 0.008 µM.
In turn, `C=CCOC(=O)N1CCc2c([nH]c3ccc(Cl)cc23)C1c1ccc(OCC2OCCO2)cc1` (stereo not drawn) [Compound 1044] came in with an EC50 below 0.008 µM.
The value for `C=CCCOC(=O)N1CCc2c([nH]c3ccc(Cl)cc23)C1c1ccc(OCC2OCCO2)cc1` (stereo not drawn) [Compound 1045] was below 0.008 µM.
`C=C(C)OC(=O)N1CCc2c([nH]c3ccc(Cl)cc23)C1c1ccc(OCC2OCCO2)cc1` (stereo not drawn) [Compound 1046] showed an EC50 of 0.008 to 0.04 µM.
Take `CC#CCOC(=O)N1CCc2c([nH]c3ccc(Cl)cc23)C1c1ccc(OCC2OCCO2)cc1` (stereo not drawn) [Compound 1047]: the EC50 was below 0.008 µM.
`C#CCOC(=O)N1CCc2c([nH]c3ccc(Cl)cc23)C1c1ccc(OCC2OCCO2)cc1` (stereo not drawn) [Compound 1048]: the EC50 is below 0.008 µM.
As to `C#CCCOC(=O)N1CCc2c([nH]c3ccc(Cl)cc23)C1c1ccc(OCC2OCCO2)cc1` (stereo not drawn) [Compound 1049], the EC50 was below 0.008 µM.
`O=C(Oc1ccc(Cl)cc1)N1CCc2c([nH]c3ccc(Cl)cc23)C1c1ccc(OCC2OCCO2)cc1` (stereo not drawn) [Compound 1053] showed an EC50 below 0.008 µM.
`O=C(OCc1ccccc1)N1CCc2c([nH]c3ccc(Cl)cc23)C1c1ccc(OCC2OCCO2)cc1` (stereo not drawn) [Compound 1056] came in with an EC50 below 0.008 µM.
In the case of `O=C(OCc1ccccc1Cl)N1CCc2c([nH]c3ccc(Cl)cc23)C1c1ccc(OCC2OCCO2)cc1` (stereo not drawn) [Compound 1057] it was below 0.008 µM; in that of `O=C(OCc1ccccc1)N1CCc2c([nH]c3ccc(Cl)cc23)C1c1ccc(OCCCO)cc1` (stereo not drawn) [Compound 1059], below 0.008 µM.

The values are drawn from US11613538B2, “Method of inhibiting or reducing a viral infection” (PTC Therapeutics, Inc., priority 2009, dated 2023).
